Source: paper PMC9772450, “Gel-forming antagonist provides a lasting effect on CGRP-induced vasodilation” (Frontiers in Pharmacology, 2022)
Non-standard residues stand in square brackets, D forms with d. Residues, ends and D or L forms follow the SMILES beside them. *: point of attachment. 2Nal = N[C@@H](Cc1ccc2ccccc2c1)C(=O)O; Palmitoyl = CCCCCCCCCCCCCCCC(=O)*; Hyp = O=C(O)[C@@H]1C[C@@H](O)CN1; Cit = NC(=O)NCCC[C@H](N)C(=O)O; Orn = NCCC[C@H](N)C(=O)O; Dab = NCC[C@H](N)C(=O)O; Abu = CC[C@H](N)C(=O)O; Aib = CC(C)(N)C(=O)O; Ahx = NCCCCCC(=O)O; βAla = NCCC(=O)O

Tests used:
[1] = Visual (tube-tapping) assay of gel-forming capability and solubility; assay type: physicochemical; design: key to Gel-forming ability: Y: can form a liquid gel; N: lacks the ability to efficiently form a liquid gel; conditions: visual inspection of 11% peptide solutions, tube-tapping, 20 min after mixing
Description: To evaluate the ability of peptides to form gels in situ, we initially determined this tendency qualitatively based on visual examinations of peptide solutions using a tube-tapping method. In addition, we quantitatively determined the viscosity of select peptide solutions using a viscometer (Rheosense Inc; http://www.rheosense.com/products/viscometers) ([Yan and Pochan, 2010]). In the visual assay, aliquots of peptides were dissolved in an aqueous solution (i.e., de-ionized water, saline, or 5% glucose solution). The peptide that dissolved instantly and stayed as a clear solution without obvious macroscopic change in viscosity at 20 min after mixing was considered soluble. If macroscopic particles of peptides remained in the solution at 20 min after mixing, the peptide was considered insoluble.

CLR/RAMP1 receptor = target: T1, CLR/RAMP1 receptor (Homo sapiens, UniProt O60894+Q16602); assay: HitHunter cAMP XS+ CALCRL-RAMP1 cAMP assay, antagonist mode; assay type: cell-based; conditions: for Maximum response: antagonist mode, β-CGRP at EC80, 10-point curve, duplicate
T1 construct: host or cells: CHO-K1 (cAMP Hunter cell line)
T1 sequence (Q16602 23-461): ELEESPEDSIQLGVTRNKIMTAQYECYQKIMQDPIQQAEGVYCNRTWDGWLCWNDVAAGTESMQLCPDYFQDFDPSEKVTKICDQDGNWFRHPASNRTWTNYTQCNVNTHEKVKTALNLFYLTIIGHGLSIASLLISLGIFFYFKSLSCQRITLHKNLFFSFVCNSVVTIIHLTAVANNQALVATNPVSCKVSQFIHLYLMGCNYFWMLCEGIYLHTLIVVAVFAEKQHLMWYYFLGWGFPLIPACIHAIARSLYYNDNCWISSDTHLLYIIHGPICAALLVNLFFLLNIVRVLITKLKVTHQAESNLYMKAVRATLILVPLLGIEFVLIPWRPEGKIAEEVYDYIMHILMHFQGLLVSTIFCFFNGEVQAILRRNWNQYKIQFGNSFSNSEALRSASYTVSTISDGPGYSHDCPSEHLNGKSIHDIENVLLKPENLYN
T1 sequence (O60894 27-148): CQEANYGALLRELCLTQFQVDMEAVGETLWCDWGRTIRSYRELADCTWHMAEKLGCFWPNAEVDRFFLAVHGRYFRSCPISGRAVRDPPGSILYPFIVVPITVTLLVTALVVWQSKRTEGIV
Description: The assay of the antagonistic activity of analogs was conducted by the Eurofins Discoverx using the HitHunter cAMP XS + assay as described earlier ([Bradley and McLoughlin, 2009]; [Chang and Hsu, 2019]). The dose-dependent inhibitory effect of antagonists was studied in duplicate, at 10 different concentrations. Determination of the half-maximal inhibitory concentration (IC50) was performed using a 10-point dose-response curve. The starting concentration was 10 μM, and it was serially diluted 3-fold, in DMSO. […] Using the Hit Hunter® assay (CALCRL-RAMP1 cAMP assay in the antagonist mode; https://www.discoverx.com/products/cell-line/cho-k1-calcrl-ramp1-gs-cell-line-95-0164c2), the eight compounds in Table 1 were assayed side-by-side once, and the IC50 was derived based on the standard assay of duplicate samples of a ten-point curve. In this homogenous, non-imaging assay, the activation of CLR/RAMP1 signaling was evaluated using the Enzyme Fragment Complementation (EFC) technology with β-galactosidase (β-Gal) as the functional reporter. The enzyme was split into two complementary portions: an enzyme acceptor and an enzyme donor. The enzyme donor is fused to cAMP and it competes with cAMP generated by cells
For binding to a cAMP-specific antibody. Active β-Gal is formed by complementation of exogenous enzyme acceptor to any unbound enzyme donor-cAMP. The active enzyme then converted a chemiluminescent substrate to generate a signal. Briefly, cAMP Hunter cell lines with the select receptor were expanded from freezer stocks ([Bradley and McLoughlin, 2009]), and cells were seeded in a total volume of 20 μL into 384-well microplates and incubated at 37°C for the appropriate time. […] Intermediate dilution of samples was performed to generate 4X sample in the assay buffer. Before the assay, media was aspirated from cells and replaced with 10 μL 1:1 HBSS/Hepes:cAMP XS + Ab reagent, and 5 μL of 4X compound was added to the cells and incubated for 30 min. […] Vehicle concentration was 1%.
The chemiluminescent signal was read with a PerkinElmer chemiluminescent plate reader. The compound activity was analyzed using a CBIS data analysis suite (ChemInnovation, CA). The percentage inhibition was calculated using the following formula: % Inhibition = 100% x (1 - (mean RLU of test sample - mean RLU of vehicle control)/(mean RLU of EC80 control - mean RLU of vehicle control)). Data were normalized to the maximal and minimal response observed in the presence of EC80 agonist and vehicle.

CCCCCCCCCCCCCCCC(=O)N[C@@H](CCCCN)C(=O)N[C@H](C(=O)N[C@@H](CCC(N)=O)C(=O)N[C@@H](CCCCNC)C(=O)N[C@@H](CC(C)C)C(=O)N[C@@H](CO)C(=O)N[C@@H](C)C(=O)N1CCC[C@H]1C(=O)N[C@H](C(=O)N[C@@H](CC(=O)O)C(=O)N1CCC[C@H]1C(=O)N[C@@H](CO)C(=O)N[C@@H](CO)C(=O)N1CCC[C@H]1C(=O)N[C@@H](Cc1c[nH]cn1)C(=O)N[C@@H](CO)C(=O)N[C@@H](Cc1ccc(O)cc1)C(N)=O)C(C)C)C(C)C [ADE651L]
Gel-forming ability [1]: Y

CCCCCCCCCCCCCCCC(=O)N[C@@H](CCCCN)C(=O)N[C@H](C(=O)N[C@@H](CCC(N)=O)C(=O)N[C@@H](CCCCN)C(=O)NC(C)(C)C(=O)N[C@@H](CO)C(=O)N[C@@H](C)C(=O)N1CCC[C@H]1C(=O)N[C@H](C(=O)N[C@@H](CC(=O)O)C(=O)N1CCC[C@H]1C(=O)N[C@@H](CO)C(=O)N[C@@H](CO)C(=O)N1CCC[C@H]1C(=O)N[C@@H](Cc1c[nH]cn1)C(=O)N[C@@H](CO)C(=O)N[C@@H](Cc1ccc(O)cc1)C(N)=O)C(C)C)C(C)C [ADE651A] (Palmitoyl-KVQK[Aib]SAPVDPSSPHSY-NH2)
Gel-forming ability [1]: N

CCCCCCCCCCCCCCCC(=O)N[C@@H](CCCCN)C(=O)N[C@H](C(=O)N[C@@H](CCC(N)=O)C(=O)N[C@@H](CCCCN)C(=O)N[C@@H](Cc1ccc2ccccc2c1)C(=O)N[C@@H](CO)C(=O)N[C@@H](C)C(=O)N1CCC[C@H]1C(=O)N[C@H](C(=O)N[C@@H](CC(=O)O)C(=O)N1CCC[C@H]1C(=O)N[C@@H](CO)C(=O)N[C@@H](CO)C(=O)N1CCC[C@H]1C(=O)N[C@@H](Cc1c[nH]cn1)C(=O)N[C@@H](CO)C(=O)N[C@@H](Cc1ccc(O)cc1)C(N)=O)C(C)C)C(C)C [ADE651H] (Palmitoyl-KVQK[2Nal]SAPVDPSSPHSY-NH2)
IC50 (CLR/RAMP1 receptor; CHO-K1 CALCRL-RAMP1 cAMP Hunter cells, human β-CGRP at EC80 (0.37nM), 30 min pre-incubation, 10-point curve from 10 μM, 3-fold dilutions, duplicate samples, assayed side-by-side once, read-out: IC50 for antagonizing CGRP-induced CLR/RAMP1 signaling): 15.1 nM | Maximum response (CLR/RAMP1 receptor): 100.1 % of positive control | Antagonistic activity toward CGRP-mediated CLR/RAMP1 signaling compared to ADE651 (CLR/RAMP1 receptor; result in words): significantly reduced antagonistic activity | Gel-forming ability [1]: Y

CCCCCCCCCCCCCCCC(=O)N[C@@H](CCCCN)C(=O)N[C@H](C(=O)N[C@@H](CCC(N)=O)C(=O)N[C@@H](CCCCN)C(=O)N[C@@H](CC)C(=O)N[C@@H](CO)C(=O)N[C@@H](C)C(=O)N1CCC[C@H]1C(=O)N[C@H](C(=O)N[C@@H](CC(=O)O)C(=O)N1CCC[C@H]1C(=O)N[C@@H](CO)C(=O)N[C@@H](CO)C(=O)N1CCC[C@H]1C(=O)N[C@@H](Cc1c[nH]cn1)C(=O)N[C@@H](CO)C(=O)N[C@@H](Cc1ccc(O)cc1)C(N)=O)C(C)C)C(C)C [ADE651I] (Palmitoyl-KVQK[Abu]SAPVDPSSPHSY-NH2)
Gel-forming ability [1]: N

CCCCCCCCCCCCCCCC(=O)N[C@@H](CCCCN)C(=O)N[C@H](C(=O)N[C@@H](CCC(N)=O)C(=O)N[C@@H](CCCCN)C(=O)N1C[C@H](O)C[C@H]1C(=O)N[C@@H](CO)C(=O)N[C@@H](C)C(=O)N1CCC[C@H]1C(=O)N[C@H](C(=O)N[C@@H](CC(=O)O)C(=O)N1CCC[C@H]1C(=O)N[C@@H](CO)C(=O)N[C@@H](CO)C(=O)N1CCC[C@H]1C(=O)N[C@@H](Cc1c[nH]cn1)C(=O)N[C@@H](CO)C(=O)N[C@@H](Cc1ccc(O)cc1)C(N)=O)C(C)C)C(C)C [ADE651E] (Palmitoyl-KVQK[Hyp]SAPVDPSSPHSY-NH2)
Gel-forming ability [1]: N

CCCCCCCCCCCCCCCC(=O)N[C@@H](CCCCN)C(=O)N[C@H](C(=O)N[C@@H](CCC(N)=O)C(=O)N[C@@H](CCCCN)C(=O)N[C@@H](CCN)C(=O)N[C@@H](CO)C(=O)N[C@@H](C)C(=O)N1CCC[C@H]1C(=O)N[C@H](C(=O)N[C@@H](CC(=O)O)C(=O)N1CCC[C@H]1C(=O)N[C@@H](CO)C(=O)N[C@@H](CO)C(=O)N1CCC[C@H]1C(=O)N[C@@H](Cc1c[nH]cn1)C(=O)N[C@@H](CO)C(=O)N[C@@H](Cc1ccc(O)cc1)C(N)=O)C(C)C)C(C)C [ADE651K] (Palmitoyl-KVQK[Dab]SAPVDPSSPHSY-NH2)
Gel-forming ability [1]: N

CCCCCCCCCCCCCCCC(=O)N[C@@H](CCCCN)C(=O)N[C@H](C(=O)N[C@@H](CCC(N)=O)C(=O)N[C@@H](CCCCN)C(=O)N[C@@H](CCCC)C(=O)N[C@@H](CO)C(=O)N[C@@H](C)C(=O)N1CCC[C@H]1C(=O)N[C@H](C(=O)N[C@@H](CC(=O)O)C(=O)N1CCC[C@H]1C(=O)N[C@@H](CO)C(=O)N[C@@H](CO)C(=O)N1CCC[C@H]1C(=O)N[C@@H](Cc1c[nH]cn1)C(=O)N[C@@H](CO)C(=O)N[C@@H](Cc1ccc(O)cc1)C(N)=O)C(C)C)C(C)C [ADE651F]
Gel-forming ability [1]: N

CCCCCCCCCCCCCCCC(=O)N[C@@H](CCCCN)C(=O)N[C@H](C(=O)N[C@@H](CCC(N)=O)C(=O)N[C@@H](CCCCN)C(=O)N[C@@H](CCCNC(N)=O)C(=O)N[C@@H](CO)C(=O)N[C@@H](C)C(=O)N1CCC[C@H]1C(=O)N[C@H](C(=O)N[C@@H](CC(=O)O)C(=O)N1CCC[C@H]1C(=O)N[C@@H](CO)C(=O)N[C@@H](CO)C(=O)N1CCC[C@H]1C(=O)N[C@@H](Cc1c[nH]cn1)C(=O)N[C@@H](CO)C(=O)N[C@@H](Cc1ccc(O)cc1)C(N)=O)C(C)C)C(C)C [ADE651D] (Palmitoyl-KVQK[Cit]SAPVDPSSPHSY-NH2)
Gel-forming ability [1]: N

CCCCCCCCCCCCCCCC(=O)N[C@@H](CCCCN)C(=O)N[C@H](C(=O)N[C@@H](CCC(N)=O)C(=O)N[C@@H](CCCCN)C(=O)N[C@@H](CCCN)C(=O)N[C@@H](CO)C(=O)N[C@@H](C)C(=O)N1CCC[C@H]1C(=O)N[C@H](C(=O)N[C@@H](CC(=O)O)C(=O)N1CCC[C@H]1C(=O)N[C@@H](CO)C(=O)N[C@@H](CO)C(=O)N1CCC[C@H]1C(=O)N[C@@H](Cc1c[nH]cn1)C(=O)N[C@@H](CO)C(=O)N[C@@H](Cc1ccc(O)cc1)C(N)=O)C(C)C)C(C)C [ADE651G] (Palmitoyl-KVQK[Orn]SAPVDPSSPHSY-NH2)
Gel-forming ability [1]: N

CCCCCCCCCCCCCCCC(=O)N[C@@H](CCCCN)C(=O)N[C@H](C(=O)N[C@@H](CCC(N)=O)C(=O)N[C@@H](CCCCNC(=O)CCS)C(=O)N[C@@H](CC(C)C)C(=O)N[C@@H](CO)C(=O)N[C@@H](C)C(=O)N1CCC[C@H]1C(=O)N[C@H](C(=O)N[C@@H](CC(=O)O)C(=O)N1CCC[C@H]1C(=O)N[C@@H](CO)C(=O)N[C@@H](CO)C(=O)N1CCC[C@H]1C(=O)N[C@@H](Cc1c[nH]cn1)C(=O)N[C@@H](CO)C(=O)N[C@@H](Cc1ccc(O)cc1)C(N)=O)C(C)C)C(C)C [ADE651O]
Gel-forming ability [1]: Y

NCCCC[C@H](NC(=O)[C@@H](Cc1cc(Br)c(O)c(Br)c1)NC(=O)N1CCC(N2Cc3ccccc3NC2=O)CC1)C(=O)N1CCN(c2ccncc2)CC1 [BIBN4096, reference compound]
Maximum response (CLR/RAMP1 receptor): 100.5 % of positive control

CCCCCCCCCCCCCCCC(=O)N[C@@H](CCCCN)C(=O)N[C@H](C(=O)N[C@@H](CCC(N)=O)C(=O)N[C@@H](CCCCN)C(=O)NCCC(=O)N[C@@H](CO)C(=O)N[C@@H](C)C(=O)N1CCC[C@H]1C(=O)N[C@H](C(=O)N[C@@H](CC(=O)O)C(=O)N1CCC[C@H]1C(=O)N[C@@H](CO)C(=O)N[C@@H](CO)C(=O)N1CCC[C@H]1C(=O)N[C@@H](Cc1c[nH]cn1)C(=O)N[C@@H](CO)C(=O)N[C@@H](Cc1ccc(O)cc1)C(N)=O)C(C)C)C(C)C [ADE651P] (Palmitoyl-KVQK[βAla]SAPVDPSSPHSY-NH2)
Gel-forming ability [1]: N

CCCCCCCCCCCCCCCC(=O)N[C@@H](CCCCN)C(=O)N[C@H](C(=O)N[C@@H](CCC(N)=O)C(=O)N[C@@H](CCCCN)C(=O)NCCCCCC(=O)N[C@@H](CO)C(=O)N[C@@H](C)C(=O)N1CCC[C@H]1C(=O)N[C@H](C(=O)N[C@@H](CC(=O)O)C(=O)N1CCC[C@H]1C(=O)N[C@@H](CO)C(=O)N[C@@H](CO)C(=O)N1CCC[C@H]1C(=O)N[C@@H](Cc1c[nH]cn1)C(=O)N[C@@H](CO)C(=O)N[C@@H](Cc1ccc(O)cc1)C(N)=O)C(C)C)C(C)C [ADE651B] (Palmitoyl-KVQK[Ahx]SAPVDPSSPHSY-NH2)
Gel-forming ability [1]: N
